Assay results published in patent US20250282785A1, “PYRROLIDINONE DERIVATIVES AS INHIBITORS OF NF KAPPA B INDUCING KINASE” (priority 2022, published 2025).

Tests used:
[1] = test system: p-IKKα levels in L363 (NIK translocated multiple myeloma) cells; experiment: Effect of compounds on p-IKKα levels in L363 cells (AlphaLISA SureFire Ultra); assay type: cell-based; conditions: Homo sapiens, L-363; L363 cells, BAFF stimulated, MG132, 6 h; average of values; read-out: Assay 2 IC50
Method in brief: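 L363 myeloma cells were BAFF-stimulated (250 ng/ml) overnight in DMEM/0.5% BSA, then exposed 6 h at 37° C to compound (11-point 1:3 series, 0.3% DMSO) with BAFF plus 10 uM MG132. p-IKKα (Ser 176/180) was read by AlphaLISA SureFire Ultra in lysates. IC50 came from sigmoidal fits normalized to stimulated and unstimulated controls.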

[2] = molecular target: Recombinant Human NF-Kappab-Inducing Kinase (NIK/MAP3K14) (Homo sapiens, UniProt Q99558); experiment: Inhibition of auto-phosphorylation of recombinant human NIK/MAP3K14 (AlphaScreen); assay type: biochemical; conditions: NIK/MAP3K14 auto-phosphorylation, 5 microM ATP, 1 nM enzyme, 2 h at 25° C.; average of values; read-out: Assay 1 IC50
Sequence of Recombinant Human NF-Kappab-Inducing Kinase (NIK/MAP3K14) (Q99558 whole entry): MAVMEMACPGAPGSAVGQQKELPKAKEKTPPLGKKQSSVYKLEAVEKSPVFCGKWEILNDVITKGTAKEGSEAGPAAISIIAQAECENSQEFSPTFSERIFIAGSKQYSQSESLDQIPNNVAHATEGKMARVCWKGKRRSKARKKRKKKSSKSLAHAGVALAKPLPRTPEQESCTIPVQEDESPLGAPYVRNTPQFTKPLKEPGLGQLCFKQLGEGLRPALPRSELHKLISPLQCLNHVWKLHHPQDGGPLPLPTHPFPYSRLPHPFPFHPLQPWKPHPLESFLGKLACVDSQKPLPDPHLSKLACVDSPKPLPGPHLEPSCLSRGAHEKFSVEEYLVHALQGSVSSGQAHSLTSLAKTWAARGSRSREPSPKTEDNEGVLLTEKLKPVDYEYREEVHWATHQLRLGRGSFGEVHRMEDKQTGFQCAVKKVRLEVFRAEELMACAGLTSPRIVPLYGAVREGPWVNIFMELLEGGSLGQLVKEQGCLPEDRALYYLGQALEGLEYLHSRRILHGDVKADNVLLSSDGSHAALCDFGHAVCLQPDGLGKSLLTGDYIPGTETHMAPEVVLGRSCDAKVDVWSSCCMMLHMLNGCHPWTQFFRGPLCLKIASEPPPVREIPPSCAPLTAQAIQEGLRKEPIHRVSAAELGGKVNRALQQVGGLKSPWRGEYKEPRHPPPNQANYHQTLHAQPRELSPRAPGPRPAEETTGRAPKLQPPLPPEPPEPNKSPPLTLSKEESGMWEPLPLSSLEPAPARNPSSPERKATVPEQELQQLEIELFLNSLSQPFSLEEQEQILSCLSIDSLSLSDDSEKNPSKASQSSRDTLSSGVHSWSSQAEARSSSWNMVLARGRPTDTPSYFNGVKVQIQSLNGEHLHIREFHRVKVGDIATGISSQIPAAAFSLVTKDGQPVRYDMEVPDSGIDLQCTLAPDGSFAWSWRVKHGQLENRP
Method in brief: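 GST-tagged NIK (1 nM) auto-phosphorylation with 5 µM ATP in Tris pH 7.5/MgCl2 buffer, 0.7% DMSO, 2 h at 25 °C. Phospho-IKK Ser176/180 antibody detected by AlphaScreen beads. Signal normalized to full-enzyme and no-ATP controls; IC50 from sigmoidal fit of % inhibition vs log concentration.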

Structure (SMILES) | IC50 [1] | IC50 [2]
CN1CC[C@@](O)(c2cc(-c3cccc(-c4c[nH]c5ncccc45)c3)no2)C1=O [Example 24, (R)-3-(3-(3-(1H-Pyrrolo[2,3-b]pyridin-3-yl)phenyl)isoxazol-5-yl)-3-hydroxy-1-methylpyrrolidin-2-one] | > 501 nM | 100 to 500 nM
CN1CC[C@@](O)(c2cc(-c3cccc(-c4ccn5nccc5n4)c3)no2)C1=O [Example 68, (R)-3-Hydroxy-1-methyl-3-(3-(3-(pyrazolo[1,5-a]pyrimidin-5-yl)phenyl)isoxazol-5-yl)pyrrolidin-2-one] | > 501 nM | > 501 nM
CN1CC[C@@](O)(c2cc(-c3cccc(-c4cc(C(N)=O)nc5[nH]ccc45)c3)no2)C1=O [Example 94, (R)-4-(3-(5-(3-Hydroxy-1-methyl-2-oxopyrrolidin-3-yl)isoxazol-3-yl)phenyl)-1H-pyrrolo[2,3-b]pyridine-6-carboxamide] | > 501 nM | > 501 nM
CN1CC[C@@](O)(c2cn(-c3cccc(-c4nc(C(N)=O)n5ccccc45)c3)nn2)C1=O [Example 15, (R)-1-(3-(4-(3-Hydroxy-1-methyl-2-oxopyrrolidin-3-yl)-1H-1,2,3-triazol-1-yl)phenyl)imidazo[1,5-a]pyridine-3-carboxamide] | < 100 nM | < 100 nM
CN1CC[C@@](O)(c2cc(-c3cccc(-c4cccc5c(=O)[nH]cnc45)c3)no2)C1=O [Example 197, (R)-8-(3-(5-(3-Hydroxy-1-methyl-2-oxopyrrolidin-3-yl)isoxazol-3-yl)phenyl)quinazolin-4(3H)-one] | > 501 nM | > 501 nM
CN1CC[C@@](O)(c2cc(-c3cccc(-c4cc(C5CC5)cc(C(N)=O)n4)c3)no2)C1=O [Example 117, (R)-4-Cyclopropyl-6-(3-(5-(3-hydroxy-1-methyl-2-oxopyrrolidin-3-yl)isoxazol-3-yl)phenyl)picolinamide] | 100 to 500 nM | < 100 nM
CN1CC[C@](O)(c2cn(-c3cccc(-c4cccc(C(N)=O)n4)c3)nn2)C1=O [Example 42, (S)-6-(3-(4-(3-Hydroxy-1-methyl-2-oxopyrrolidin-3-yl)-1H-1,2,3-triazol-1-yl)phenyl)picolinamide] | > 501 nM | > 501 nM
CN1CC[C@@](O)(c2cc(-c3cccc(-c4cccc5c4CNC5=O)c3)no2)C1=O [Example 59, (R)-4-(3-(5-(3-hydroxy-1-methyl-2-oxopyrrolidin-3-yl)isoxazol-3-yl)phenyl)isoindolin-1-one] | > 501 nM | > 501 nM
[2H]C1([2H])N(C)C(=O)[C@](O)(c2cc(-c3cccc(-c4nc(C(N)=O)n5c4CCCC5)c3)no2)C1([2H])[2H] [Example 180, (R)-1-(3-(5-(3-Hydroxy-1-methyl-2-oxopyrrolidin-3-yl-4,4,5,5-d4)isoxazol-3-yl)phenyl)-5,6,7,8-tetrahydroimidazo[1,5-a]pyridine-3-carboxamide] | 100 to 500 nM | < 100 nM
CN1CC[C@@](O)(c2cc(-c3cccc(-c4ccc5c(c4)N(C)C(=O)CN5)c3)no2)C1=O [Example 80, (R)-7-(3-(5-(3-Hydroxy-1-methyl-2-oxopyrrolidin-3-yl)isoxazol-3-yl)phenyl)-1-methyl-3,4-dihydroquinoxalin-2(1H)-one] | > 501 nM | > 501 nM
Cc1cc(-c2cccc(-c3cc([C@]4(O)CCN(C)C4=O)on3)c2)nc2c(N)ncnc12 [Example 26, (R)-3-(3-(3-(4-Amino-8-methylpyrido[3,2-d]pyrimidin-6-yl)phenyl)isoxazol-5-yl)-3-hydroxy-1-methylpyrrolidin-2-one] | < 100 nM | < 100 nM
[2H]c1nc(N)c2nc(-c3cccc(-c4cc([C@]5(O)CCN(C)C5=O)n[nH]4)c3)ccc2n1 (single isomer, unassigned) [Example 38] | > 501 nM | < 100 nM
